Assay [1] in a line: Ratio of antidiuretic V2 effective dose to that of vasopressin V1 effective dose. It is filed as functional, Urine.
The target of assay [2] is Vasopressin V1 receptor (Rattus norvegicus) (UniProt P48974+P30560). Nature of the assay: Dose that reduces blood pressure response in rats. It is filed as functional.
The target in assay [3] is Vasopressin V2 receptor (Rattus norvegicus) (UniProt Q00788). Briefly: Dose that reduces urine flow in water-loaded rats. It is filed as functional.
Vasopressin V2 receptor (Rattus norvegicus), sequence (Q00788 whole entry): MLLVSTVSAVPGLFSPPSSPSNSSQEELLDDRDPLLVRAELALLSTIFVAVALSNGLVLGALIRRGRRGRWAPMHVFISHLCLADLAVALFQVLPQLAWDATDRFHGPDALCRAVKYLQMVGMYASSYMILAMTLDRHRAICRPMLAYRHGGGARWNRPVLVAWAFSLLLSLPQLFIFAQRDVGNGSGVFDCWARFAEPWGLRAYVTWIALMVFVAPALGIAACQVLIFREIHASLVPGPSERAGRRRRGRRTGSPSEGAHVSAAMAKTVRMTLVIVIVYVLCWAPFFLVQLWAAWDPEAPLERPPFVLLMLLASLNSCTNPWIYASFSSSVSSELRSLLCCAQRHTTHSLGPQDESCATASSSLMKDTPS
Assay [4] shares this target. Nature of the assay: Antidiuretic activity in water-loaded rats.

*1 amine or outer side, *2 acyl side, *3 side chain or, on linkers, in order; H or OH if unused. Where a SMILES comes first, the peptide text is derived from it. Bridges are numbered along the chain shown (N, C = ends). [ ]: non-standard residue; d: D form. NMeY = CN[C@@H](Cc1ccc(O)cc1)C(=O)O; Ethylenediamine = C(CN[*:2])N[*:1]; X1 = O=C(CC1(S[*:2])CCCCC1)[*:1]

This passage reports Ratio, Effective dose and Antidiuretic activity results from ChEMBL document CHEMBL1125295, “Synthesis and some pharmacological properties of potent and selective antagonists of the vasopressor (V1-receptor) response to arginine-vasopressin” (J Med Chem, 1992).

Vasopressin V1 receptor (Rattus norvegicus), sequence (P30560 whole entry, looked up): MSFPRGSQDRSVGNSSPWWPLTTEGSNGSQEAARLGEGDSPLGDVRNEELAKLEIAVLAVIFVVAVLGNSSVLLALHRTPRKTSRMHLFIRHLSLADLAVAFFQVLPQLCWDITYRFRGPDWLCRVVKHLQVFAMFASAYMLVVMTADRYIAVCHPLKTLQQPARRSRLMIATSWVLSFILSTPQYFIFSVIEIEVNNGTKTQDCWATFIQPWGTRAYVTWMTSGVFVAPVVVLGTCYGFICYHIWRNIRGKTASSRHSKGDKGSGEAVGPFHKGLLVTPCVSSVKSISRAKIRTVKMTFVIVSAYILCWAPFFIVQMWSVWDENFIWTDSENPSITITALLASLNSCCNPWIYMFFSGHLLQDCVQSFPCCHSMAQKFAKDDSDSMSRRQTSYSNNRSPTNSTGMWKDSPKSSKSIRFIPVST
Vasopressin V1 receptor (Rattus norvegicus), sequence (P48974 whole entry, looked up): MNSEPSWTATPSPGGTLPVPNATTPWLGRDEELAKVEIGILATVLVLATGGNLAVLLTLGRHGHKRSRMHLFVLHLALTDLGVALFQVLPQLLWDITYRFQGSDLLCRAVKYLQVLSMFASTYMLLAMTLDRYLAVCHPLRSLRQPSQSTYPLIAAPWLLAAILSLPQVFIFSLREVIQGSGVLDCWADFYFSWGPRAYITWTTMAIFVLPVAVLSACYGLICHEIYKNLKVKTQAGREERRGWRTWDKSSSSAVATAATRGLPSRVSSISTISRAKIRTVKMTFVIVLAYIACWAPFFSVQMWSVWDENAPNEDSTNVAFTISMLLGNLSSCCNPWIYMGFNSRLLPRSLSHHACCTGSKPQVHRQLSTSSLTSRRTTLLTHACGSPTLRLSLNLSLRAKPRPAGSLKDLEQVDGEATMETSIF

On to `CN1C(=O)CC2(CCCCC2)SSC[C@H](C(=O)N2CCC[C@H]2C(=O)N[C@@H](CCCN=C(N)N)C(=O)N[C@@H](CCCN=C(N)N)C(N)=O)NC(=O)[C@@H](CC(N)=O)NC(=O)[C@H](CCC(N)=O)NC(=O)[C@@H](Cc2ccccc2)NC(=O)[C@@H]1Cc1ccc(O)cc1`, for which the Ratio in assay [1] is listed as approximately 150. The Effective dose in assay [2] stood at 0.12 nM/kg; in assay [3] it was 18 nM/kg.
`CC(C)[C@H](NC(=O)[C@H](CCCN=C(N)N)NC(=O)[C@@H]1CCCN1C(=O)[C@H]1CSSC(C)(C)CC(=O)N(C)[C@@H](Cc2ccc(O)cc2)C(=O)N[C@H](Cc2ccccc2)C(=O)N[C@@H](CCC(N)=O)C(=O)N[C@H](CC(N)=O)C(=O)N1)C(N)=O` yielded an Antidiuretic activity in assay [4] of 0.039 units/mg. Further, in assay [2], the Effective dose was determined as 0.6 nM/kg.
Regarding `CC(C)[C@H](NC(=O)[C@H](CCCN=C(N)N)NC(=O)[C@@H]1CCCN1C(=O)[C@H]1CSSC2(CCCCC2)CC(=O)N(C)[C@@H](Cc2ccc(O)cc2)C(=O)N[C@H](Cc2ccccc2)C(=O)N[C@@H](CCC(N)=O)C(=O)N[C@H](CC(N)=O)C(=O)N1)C(N)=O`, the Effective dose in assay [2] came out at 0.2 nM/kg; in assay [3] it was 115 nM/kg.
In assay [4], `CN1C(=O)CC(C)(C)SSC[C@H](C(=O)N2CCC[C@H]2C(=O)N[C@@H](CCCN=C(N)N)C(=O)N[C@@H](CCCN=C(N)N)C(N)=O)NC(=O)[C@@H](CC(N)=O)NC(=O)[C@H](CCC(N)=O)NC(=O)[C@@H](Cc2ccccc2)NC(=O)[C@@H]1Cc1ccc(O)cc1` displayed an Antidiuretic activity of 0.083 units/mg.
`CN1C(=O)CC(C)(C)SSC[C@H](C(=O)N2CCC[C@H]2C(=O)N[C@@H](CCCN=C(N)N)C(=O)N[C@@H](Cc2ccc(O)cc2)C(N)=O)NC(=O)[C@@H](CC(N)=O)NC(=O)[C@H](CCC(N)=O)NC(=O)[C@@H](Cc2ccccc2)NC(=O)[C@@H]1Cc1ccc(O)cc1` gave an Antidiuretic activity in assay [4] of 0.029 units/mg. This molecule yielded an Effective dose in assay [2] of 0.38 nM/kg.
Consider `CN1C(=O)CC2(CCCCC2)SSC[C@H](C(=O)N2CCC[C@H]2C(=O)N[C@@H](CCCN=C(N)N)C(=O)NCC(=O)NCCN)NC(=O)[C@@H](CC(N)=O)NC(=O)[C@H](CCC(N)=O)NC(=O)[C@@H](Cc2ccccc2)NC(=O)[C@@H]1Cc1ccc(O)cc1`, for which the Effective dose was 0.27 nM/kg in assay [2] and 16 nM/kg in assay [3].
The matching figures for `CN1C(=O)CC2(CCCCC2)SSC[C@H](C(=O)N2CCC[C@H]2C(=O)N[C@@H](CCCN=C(N)N)C(=O)NCCN)NC(=O)[C@@H](CC(N)=O)NC(=O)[C@H](CCC(N)=O)NC(=O)[C@@H](Cc2ccccc2)NC(=O)[C@@H]1Cc1ccc(O)cc1`: 0.12 nM/kg and 33 nM/kg.
On the same counts, the results for `CNC(=O)[C@H](CCCN=C(N)N)NC(=O)[C@@H]1CCCN1C(=O)[C@H]1CSSC2(CCCCC2)CC(=O)N(C)[C@@H](Cc2ccc(O)cc2)C(=O)N[C@H](Cc2ccccc2)C(=O)N[C@@H](CCC(N)=O)C(=O)N[C@H](CC(N)=O)C(=O)N1` are 0.12 nM/kg and 84 nM/kg.
The matching figures for `C[C@H](NC(=O)[C@H](CCCN=C(N)N)NC(=O)[C@@H]1CCCN1C(=O)[C@H]1CSSC2(CCCCC2)CC(=O)N(C)[C@@H](Cc2ccc(O)cc2)C(=O)N[C@H](Cc2ccccc2)C(=O)N[C@@H](CCC(N)=O)C(=O)N[C@H](CC(N)=O)C(=O)N1)C(N)=O`: 0.13 nM/kg and 77 nM/kg.
Consider `C[C@H](O)[C@H](NC(=O)[C@H](CCCN=C(N)N)NC(=O)[C@@H]1CCCN1C(=O)[C@H]1CSSC2(CCCCC2)CC(=O)N(C)[C@@H](Cc2ccc(O)cc2)C(=O)N[C@H](Cc2ccccc2)C(=O)N[C@@H](CCC(N)=O)C(=O)N[C@H](CC(N)=O)C(=O)N1)C(N)=O`, for which the Effective dose in assay [2] stood at 0.22 nM/kg; in assay [3], 45 nM/kg.
For `COc1ccc(C[C@@H]2NC(=O)CC3(CCCCC3)SSC[C@@H](C(=O)N3CCC[C@H]3C(=O)N[C@@H](CCCN=C(N)N)C(=O)NCC(=O)NCCN)NC(=O)[C@H](CC(N)=O)NC(=O)[C@H](CCC(N)=O)NC(=O)[C@H](Cc3ccccc3)NC2=O)cc1` (Y(Me)FQNCPRG-Ethylenediamine; linker N-5 via X1), in assay [1], the Ratio was approximately 60.
The same measure, in the same setting: next, `COc1ccc(C[C@@H]2NC(=O)CC3(CCCCC3)SSC[C@@H](C(=O)N3CCC[C@H]3C(=O)N[C@@H](CCCN=C(N)N)C(=O)N[C@H](C(N)=O)[C@@H](C)O)NC(=O)[C@H](CC(N)=O)NC(=O)[C@H](CCC(N)=O)NC(=O)[C@H](Cc3ccccc3)NC2=O)cc1` (Y(Me)FQNCPRT-NH2; linker N-5 via X1): approximately 205.
Still for that read-out and setting: the figure for `COc1ccc(C[C@@H]2NC(=O)CC3(CCCCC3)SSC[C@@H](C(=O)N3CCC[C@H]3C(=O)N[C@@H](CCCN=C(N)N)C(=O)N[C@H](C(N)=O)C(C)C)NC(=O)[C@H](CC(N)=O)NC(=O)[C@H](CCC(N)=O)NC(=O)[C@H](Cc3ccccc3)NC2=O)cc1` (Y(Me)FQNCPRV-NH2; linker N-5 via X1) is approximately 575.
Still for that read-out and setting: next, `COc1ccc(C[C@@H]2NC(=O)CC3(CCCCC3)SSC[C@@H](C(=O)N3CCC[C@H]3C(=O)N[C@@H](CCCN=C(N)N)C(=O)N[C@@H](Cc3ccc(O)cc3)C(N)=O)NC(=O)[C@H](CC(N)=O)NC(=O)[C@H](CCC(N)=O)NC(=O)[C@H](Cc3ccccc3)NC2=O)cc1` (Y(Me)FQNCPRY-NH2; linker N-5 via X1): approximately 217.
As for `CN1C(=O)CC2(CCCCC2)SSC[C@H](C(=O)N2CCC[C@H]2C(=O)N[C@@H](CCCN=C(N)N)C(=O)NCC(N)=O)NC(=O)[C@H](CC(N)=O)NC(=O)[C@H](CCC(N)=O)NC(=O)[C@H](Cc2ccccc2)NC(=O)[C@@H]1Cc1ccc(O)cc1` ([NMeY]FQN[dC]PRG-NH2; linker N-5 via X1), the Antidiuretic activity in assay [4] was determined as 0.31 units/mg. In assay [2], this molecule had an Effective dose of 0.16 nM/kg.
